Source: US20250290057A1, “LYTIC AGENT FOR ENTEROCOCCUS FAECALIS” (priority 2022, published 2025)
In brackets after ≈: the same amount, converted by molar mass.

B1: phage-derived endolysin: endolysin of SEQ ID NO: 1 found in prophage sequences of 11 E. faecalis isolates; produced from a His-SUMO-labeled expression vector (protein)
chain: MTLNGIDISSWQSNINVGKEGVSADFVIIKATGGTGYINPDCDRAFQQAISSGKKVAVYHFANEVGLEGTAEQEAEFFLKNIKGYIGKAVLVLDWESTNKGDVPWAKRWLDYVQSKTGVKPMFYTYTNVLQSYNFSSIAKADYGLWLADYGANNPQGYSQPTPPSVPYWNFISMYQYTSNGQLPGWNGRLDLNVFFGDRNMWDKYANPKSNPTPAPPVPPKPKRRYGYRVDDLQFVNGIWQVRNDVLGQPDFDWTENGINVAYIDKINPATGENTPDQELKVGDYFAFQPSSVGIITEQYSLNGKTISHVQFPDEFIWLYTESVEKLIYG
modifications: His-SUMO tag; Enterococcus faecalis-derived prophage
notes: produced from a His-SUMO-labeled expression vector

Key:
[1] = system: E. faecalis isolates; experiment: Minimal inhibitory concentration of antibacterial agents, "Eiken" DP42 dry plate; type: cell-based, Enterococcus faecalis; conditions: for MIC: Enterococcus faecalis, read-out: Minimal inhibitory concentration; for Sensitivity of strains to antibacterial agent: all E. faecalis strains (11 strains)
Method: (§1) The sensitivity to an antibacterial agent for each of the above-described 30 Enterococcus bacterial strains was invenstigated. Specifically, the bacterial strains prepared in 1 McFarland standard with physiological saline were diluted 500-fold with a BHI culture medium, and then aerobically cultured in solid-phase wells of an “Eiken” DP42 dry plate (Eiken Chemical Co., Ltd., Tokyo, Japan) for 24 hours.
(§2) The minimal inhibitory concentration of any one of the antibacterial agents, i.e., daptomycin (DAP), vancomycin (VCM), teicoplanin (TEIC), and linezolid (LZD), was determined in accordance with the instruction of the product. […] The results obtained by testing resistance to the antibacterial agents of the E. faecalis strains (11 strains) are shown in Table 1 below.

[2] = system: E. faecium isolates; experiment: as above; type: cell-based, Enterococcus faecium; conditions: all E. faecium (19 strains)
Method: as §1, §2

[3] = system: GVHD model mice to which E. faecalis OCU031_14_8 strain was administered; experiment: Administration to GVHD model mice to which E. faecalis was administered; type: in vivo
Method: All the animal experiments were performed with the approval of the Animal Care and Use Committee of Osaka Metropolitan University. Germ-free C57BL/6 female mice (H2k^b) and SPF 129SvJ/JmsSlc female mice (6 to 8 weeks old) were purchased from SLC Japan Inc. (Hamamatsu, Japan) and CLEA Japan, Inc. (Tokyo, Japan) respectively. The mice were reared under temperature control (23±2° C.) under dark-period conditions from 8 pm to 8 am, and allowed to freely take sterile water and standard solid food for laboratory mice. The germ-free C57BL/6 mice were reared, one individual in one cage.
Before the stem cell transplantation, a suspension of E. faecalis OCU031_14_8 strain was orally administered to the germ-free C57BL/6 female mice. The suspension used was a suspension in which a 2.0×10^8 colony forming unit (cfu) was suspended in 200 μL of sterile PBS. […]
The survival rate after Day 0 was monitored every day. All the survival periods of the groups were statistically analyzed and compared using a generalized Wilcoxon test. […] The number of colonies formed was measured to quantify the amount of E. faecalis bacteria in the feces. […]

[4] = system: E. faecium strain JCM5804; experiment: Lytic activity using presence or absence of a bacterial lump as an index; type: cell-based; design: key to Lysis by endolysin: lyzed: +; not lyzed: −; conditions: 50 μg/mL
Method: (§3) The hemolytic activity of each of the bacterial strains was measured with a hemolysis assay using a Nissui Plate Horse Blood Agar medium. The cytolysin-related gene was detected with PCR. The vancomycin resistance was evaluated using the method described in (2) in Example 2. The vanA gene and the vanB gene that are vancomycin-resistant genes were detected with PCR. Furthermore, each bacterial strain was aerobically cultured in a BHI culture medium, and centrifuged at 300×g for 5 minutes for collection. The cell pellets were washed, and resuspended in a HiTrap buffer. The phage-derived endolysin was added at a final concentration of 50 μg/mL to the cell resuspension liquid. The resulting suspension was incubated at 37° C., and the lytic activity was measured, using the presence or absence of a bacterial lump as an index.

[5] = system: E. faecalis strains JCM5803, JCM8902; experiment: as above; type: cell-based; design: key to Lysis by endolysin: lyzed: +; not lyzed: −; conditions: 50 μg/mL; for Lysis by endolysin: 37° C.
Method: as §3

[6] = system: GVHD model mice in which patient feces (OCU031_14) with Enterococcus dominance was transplanted; experiment: Administration to GVHD model mice in which fecal sample was transplanted; type: in vivo; conditions: 200 μg orally three times a week
Method: All the animal experiments were performed with the approval of the Animal Care and Use Committee of Osaka Metropolitan University. […] The survival rate after Day 0 was monitored every day, and the composition of the enteric microbes on each of Day 0 and Day 8 was analyzed by 16S rRNA gene sequencing.

[7] = system: biofilms of 11 E. faecalis isolates; experiment: Biofilm assay using crystal-violet staining; type: cell-based, Enterococcus faecalis; conditions: final concentration of 50 μg/mL, incubated overnight; all 11 E. faecalis strains
Method: A biofilm assay was performed, using crystal-violet staining, in accordance with a method described in the past literature (Yang, Y., et al., J Appl Oral Sci., 2018, 26: e20170566; Shao, C., et al., J Proteome res., 2012, 11 (9): 4465-75; He Z., et al., Int J Antimicrob Agents., 2012, 40 (1): 30-5). This assay is a method in which a crystal violet pigment is adsorbed into a bacteria-derived biofilm (comprising an extracellular matrix and the like), and then, ethanol is added to the resulting biofilm to elute the crystal violet pigment, the absorbance of which is measured to quantify the amount of the pigment.
Specifically, each of the 11 species of E. faecalis isolates was cultured at 37° C. overnight in a BHI culture medium supplemented with aztreonam (20 μg/mL), polymyxinB (20 μg/mL), and amphotericinB (4 μg/mL). Then, the isolate was diluted 100-fold with a new BHI culture medium, inoculated into a 96-well flat-bottomed polystyrene microtiter plate (Corning, Inc., Arizona, USA, 353072), and aerobically cultured further at 37° C. for 24 hours. Then, the 96-well plate was washed once with 200 μL of a HiTrap buffer, and 200 μL of phage-derived endolysin or a vehicle (SUMO protein having a His tag added thereto) was added (at a final concentration of 50 μg/mL). […] The absorbance of the sample was measured at 570 nm. […]

[8] = system: E. faecalis isolate OCU031_14_8; experiment: Lytic activity by turbidity (OD600) of cell resuspension liquid; type: cell-based, Enterococcus faecalis; conditions: final concentration of 50 μg/mL
Method: The E. faecalis isolate OCU031_14_8 was aerobically cultured in a BHI culture medium, and centrifuged at 3,000×g for 15 minutes for collection. The cell pellets were washed, and resuspended in a HiTrap buffer. The phage-derived endolysin was added at a final concentration of 50 μg/mL to the cell resuspension liquid. The turbidity (OD600) was measured with a TVS062CA BioPhoto recorder (ADVANTEC Co., Ltd., Tokyo, Japan) every 1 minute to measure the lytic activity.

[9] = E. faecalis strain OCU009_35_10
[10] = E. faecalis strain OCU031_pre_6
[11] = E. faecalis strain OCU031_pre_7
[12] = E. faecalis strain OCU031_pre_10

| Molecule | Minimal inhibitory concentration ([1]; E. faecalis strain OCU009_35_4) [µg/mL] | Minimal inhibitory concentration [1, 9] [µg/mL] | Minimal inhibitory concentration ([1]; E. faecalis strain OCU015_56_6) [µg/mL] | Minimal inhibitory concentration ([1]; E. faecalis strain OCU031_7_1) [µg/mL] | Minimal inhibitory concentration ([1]; E. faecalis strain OCU031_7_9) [µg/mL] | Minimal inhibitory concentration ([1]; E. faecalis strain OCU031_14_5) [µg/mL] | Minimal inhibitory concentration ([1]; E. faecalis strain OCU031_14_8) [µg/mL] | Minimal inhibitory concentration [1, 10] [µg/mL] | Minimal inhibitory concentration [1, 11] [µg/mL] | Minimal inhibitory concentration [1, 12] [µg/mL] | MIC ([1]; E. faecalis strain OCU015_56_7) [µg/mL] | Sensitivity of strains to antibacterial agent [1] | Sensitivity of strains to antibacterial agent [2] | further results |
| --- | --- | --- | --- | --- | --- | --- | --- | --- | --- | --- | --- | --- | --- | --- |
| CC(=O)NC[C@H]1CN(c2ccc(N3CCOCC3)c(F)c2)C(=O)O1 [linezolid] | 2 (≈ 5.93 µM) | 2 (≈ 5.93 µM) | 2 (≈ 5.93 µM) | 2 (≈ 5.93 µM) | 2 (≈ 5.93 µM) | 2 (≈ 5.93 µM) | 2 (≈ 5.93 µM) | 2 (≈ 5.93 µM) | 2 (≈ 5.93 µM) | 2 (≈ 5.93 µM) | 2 (≈ 5.93 µM) | exhibited sensitivity | exhibited sensitivity |  |
| teicoplanin | 1 | 2 | 0.5 | 2 | 2 | 1 | 1 | 1 | 1 | 1 |  | exhibited sensitivity | exhibited sensitivity | Minimal inhibitory concentration ([1]; E. faecalis strain OCU015_56_7): 0.5 µg/mL |
| CCCCCCCCCC(=O)N[C@@H](Cc1c[nH]c2ccccc12)C(=O)N[C@H](CC(N)=O)C(=O)N[C@@H](CC(=O)O)C(=O)N[C@@H]1C(=O)NCC(=O)N[C@@H](CCCN)C(=O)N[C@@H](CC(=O)O)C(=O)N[C@H](C)C(=O)N[C@@H](CC(=O)O)C(=O)NCC(=O)N[C@H](CO)C(=O)N[C@@H]([C@H](C)CC(=O)O)C(=O)N[C@@H](CC(=O)c2ccccc2N)C(=O)O[C@@H]1C [daptomycin] | >4 | >4 | >4 | >4 | >4 | >4 | >4 | >4 | >4 | >4 | > 4 | exhibited sensitivity | exhibited sensitivity |  |
| B1 |  |  |  |  |  |  |  |  |  |  |  |  |  | Amount of the E. faecalis bacteria in the feces ([3]; 200 μg orally three times a week (10 mg/kg/day) from Day 0 until the third week): noticeable decrease; Survival rate ([3]; 25 days after the stem cell transplantation, 200 μg orally three times a week): 100%; Lytic activity ([4]; JCM5804 strain, E. faecium isolate): did not exhibit a lytic activity; Lysis by endolysin ([4]; strain JCM5804, 37° C.): −; Lytic activity ([5]; JCM8902 strain, vancomycin-resistant and cytolysin-positive E. faecalis isolate): exhibited a lytic activity; Lysis by endolysin ([5]; strain JCM5803): +; Lysis by endolysin ([5]; strain JCM8902 (vancomycin-resistant, cytolysin-positive)): +; Ratio of Enterococcus bacteria present in the enteric microbes ([6]; 8 days after the stem cell transplantation, 16S rRNA gene sequencing): decreased significantly; Survival rate ([6]; 30 days after the stem cell transplantation): 100%; Lysis of biofilm (crystal violet, absorbance at 570 nm) [7]: lysed; Lytic activity (OD600 turbidity) [8]: lysed |
